Drawing on patent US20150045551A1, “FUSED AZOLE DERIVATIVE” (TAISHO PHARMACEUTICAL CO., LTD, priority 2012, published 2015), this text covers IC50 for two compounds.

Assay [1] addresses T1, Human V1b receptor (Homo sapiens, UniProt P47901).
T1 sequence (P47901 1-424): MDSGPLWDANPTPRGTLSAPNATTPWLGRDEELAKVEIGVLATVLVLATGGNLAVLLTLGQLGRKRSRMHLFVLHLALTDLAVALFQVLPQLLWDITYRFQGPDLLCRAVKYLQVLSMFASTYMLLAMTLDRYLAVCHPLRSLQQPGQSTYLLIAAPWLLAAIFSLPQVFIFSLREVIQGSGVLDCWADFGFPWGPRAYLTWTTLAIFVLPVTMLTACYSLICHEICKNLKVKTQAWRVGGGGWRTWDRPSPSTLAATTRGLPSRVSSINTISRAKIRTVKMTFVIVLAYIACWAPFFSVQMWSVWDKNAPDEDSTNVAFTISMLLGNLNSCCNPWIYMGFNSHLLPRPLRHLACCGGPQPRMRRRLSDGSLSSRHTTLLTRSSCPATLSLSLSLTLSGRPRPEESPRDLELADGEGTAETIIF
Briefly: Measurement of V1b receptor antagonistic activity (AVP-induced Fluo-4 fluorescence, FDSS). The format is cell-based. On the set-up: expressed in transfected cells. Conditions: CHO cells stably expressing human V1b receptor; AVP 2.5 nmol/L; 30 minutes preincubation with test compound. How it is done: CHO cells so modified as to express human V1b receptor in a stable manner were cultured in Ham's F-12 medium (containing 10% FBS and 0.5 mg/mL Geneticin). On the day before the test, seeding was conducted at a density of 20,000 cells/well in a 96-well poly-D-lysine coated black plate. On the day of the test, the culture medium was removed, and a loading solution (1×HBSS, 10 mmol/L HEPES, 0.1% bovine serum albumin, 1.25 mmol/L Probenecid, 0.02% Pluronic F-127, 1.5 μmol/L Fluo-4-AM, pH 7.4) was added to each well, followed by incubation in a CO2 incubator for an hour. After the incubation, the loading solution was removed. A test solution (1×HBSS, 10 mmol/L HEPES, 0.1% bovine serum albumin, 1.25 mmol/L Probenecid, pH 7.4) containing any one of test compounds was added to wells, followed by incubation in a CO2 incubator for 30 minutes. The test compound was serially diluted with DMSO so that it would have final concentrations of 0.1 nmol/L to 1 μmol/L at the time of assaying. After the incubation, fluorescence intensity levels were measured and AVP added by means of FDSS (Hamamatsu Photonics K.K.); AVP was added to give a final concentration of 2.5 nmol/L at the time of assaying. […] The fluorescence level in a well to which neither test compound nor AVP was added was defined as 0%, and the fluorescence level in a well to which only AVP was added and no test compound was added was defined as 100%. A dose-response curve was plotted from fluorescence levels after the addition of AVP in the presence of a test compound at various concentrations, and the 50% inhibitory concentration (IC50 value) of the compound was calculated.

The target of assay [2] is T1, Human V1b receptor. The assay can be described thus: Binding test for V1b receptor ([3H]AVP displacement, crude membrane preparation). Also on record: expressed in transfected cells; host or cells: 293FT cells (transient expression). Conditions: [3H]AVP 0.4 to 1 nmol/L; membranes of 293FT cells transiently expressing human V1b receptor; room temperature, 60 minutes. How it is done: Human V1b receptor was transiently expressed in 293FT cells, which were then recovered and homogenated in a 15 mmol/L tris-hydrochloric acid buffer (pH 7.4 and containing 2 mmol/L magnesium chloride, 0.3 mmol/L ethylenediaminetetracetic acid, and 1 mmol/L glycol ether diaminetetraacetic acid). The resulting homogenate was centrifuged at 50,000×g at 4 ° C. for 20 minutes. The precipitate was resuspended in a 75 mmol/L tris-hydrochloric acid buffer (pH 7.4 and containing 12.5 mmol/L magnesium chloride, 0.3 mmol/L ethylenediaminetetracetic acid, 1 mmol/L glycol ether diaminetetraacetic acid, and 250 mmol/L sucrose) to give a crude membrane preparation, which was stored at −80° C. until the binding test was initiated. In the binding test, the crude membrane preparation was diluted with a 50 mmol/L tris-hydrochloric acid buffer (pH 7.4 and containing 10 mmol/L magnesium chloride and 0.1% bovine serum albumin) and mixed with each test compound and [^3H]AVP (final concentration: 0.4 to 1 nmol/L), followed by incubation at room temperature for 60 minutes. The test compound was serially diluted with DMSO so that it would have final concentrations of 0.01 nmol/L to […] at the time of mixing. After the incubation, the mixture was suction filtered through a GF/C filter that was preliminarily impregnated with 0.3% polyethyleneimine. The GF/C filter was dried and after adding a scintillator, the residual radioactivity on the filter was measured using TopCount (PerkinElmer Inc.). The radioactivity in the presence of unlabeled AVP at 10 μmol/L was defined as 0%, and the radioactivity in the absence of unlabeled AVP was defined as 100%. A dose-response curve was plotted from radioactivities in the presence of a test compound at various concentrations, and the 50% inhibitory concentration (IC50 value) of the test compound was calculated.

The IC50 is the point on the concentration scale where inhibition reaches its midpoint. A high value points to lower potency. With `CC(C)NC(=O)Cn1c(-c2ccc(F)c(Cl)c2)cc2cc(OC3CCN(C4CCCC4)CC3)ccc21` [Example B-17, 2-{2-(3-chloro-4-fluorophenyl)-5-[(1-cyclopentylpiperidin-4-yl)oxy]-1H-indol-1-yl}-N-isopropyl acetamide], the values for the IC50 in assay [1] and in assay [2] were 6 nM and 0.86 nM, respectively.

Consider `CC(C)NC(=O)Cn1c(-c2cccc(Cl)c2)cc2cc(OCCCN3CCCCC3)cnc21` [Example B-21, 2-{2-(3-chlorophenyl)-5-[3-(piperidin-1-yl)propoxy]-1H-pyrrolo[2,3-b]pyridin-1-yl}-N-isopropyl acetamide], for which the values for the IC50 in assay [1] and in assay [2] were 50.8 nM and 21.4 nM, respectively.
